Here are results for 20 molecules from patent US9206130B2, “Quinoline derivatives as AXL kinase inhibitors” (Max-Planck-Gesellschaft zur Förderung der Wissenschaften …, priority 2008, dated 2015).

The target of data set [1] is T1, wild type AXL (wtAXL) receptor tyrosine kinase (Homo sapiens, UniProt P30530).
T1 construct: WtAXL cDNA was cloned into vector pLXSN(ESK) and transfected into Phoenix E packaging cells; expressed in transfected cells; host or cells: NIH3T3 N7 mouse fibroblasts, retrovirally infected (clone 22)
T1 sequence (P30530 26-894): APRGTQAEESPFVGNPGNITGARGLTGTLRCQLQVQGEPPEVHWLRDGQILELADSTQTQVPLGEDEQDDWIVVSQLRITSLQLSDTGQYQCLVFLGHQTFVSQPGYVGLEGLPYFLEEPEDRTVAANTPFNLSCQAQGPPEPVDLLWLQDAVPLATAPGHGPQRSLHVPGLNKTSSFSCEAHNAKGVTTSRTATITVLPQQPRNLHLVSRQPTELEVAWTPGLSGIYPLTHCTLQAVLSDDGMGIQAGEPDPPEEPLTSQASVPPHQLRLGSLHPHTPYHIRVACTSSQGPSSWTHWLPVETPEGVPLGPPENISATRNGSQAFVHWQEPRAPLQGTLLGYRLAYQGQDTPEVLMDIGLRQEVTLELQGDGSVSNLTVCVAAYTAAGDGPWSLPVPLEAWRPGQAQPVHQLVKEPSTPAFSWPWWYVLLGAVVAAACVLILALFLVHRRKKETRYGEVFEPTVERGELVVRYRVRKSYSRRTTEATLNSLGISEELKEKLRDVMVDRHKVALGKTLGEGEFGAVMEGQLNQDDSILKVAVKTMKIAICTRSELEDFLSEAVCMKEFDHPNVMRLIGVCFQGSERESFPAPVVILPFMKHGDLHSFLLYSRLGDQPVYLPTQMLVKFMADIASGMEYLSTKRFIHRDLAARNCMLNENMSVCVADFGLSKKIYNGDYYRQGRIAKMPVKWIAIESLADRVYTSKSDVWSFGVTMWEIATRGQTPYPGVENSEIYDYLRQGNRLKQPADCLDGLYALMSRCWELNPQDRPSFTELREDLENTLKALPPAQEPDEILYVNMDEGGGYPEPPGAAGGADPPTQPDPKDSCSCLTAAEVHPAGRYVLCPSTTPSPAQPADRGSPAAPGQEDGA
The data set is described as follows: NIH-3T3-AXL cellular tyrosine kinase assay (inhibition of AXL phosphorylation). The data set is classed as cell-based. As to conditions: AXL phosphorylation in NIH-3T3-AXL (clone 22) cells, serum-depleted, 2 h with compound, immunoprecipitation / anti-phosphotyrosine blot. In outline: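 Compound inhibition of AXL autophosphorylation was read by 4G10 immunoblot after anti-AXL immunoprecipitation from lysates. Cells: NIH3T3 lines stably carrying retroviral wild-type human AXL, treated 2 h with compound dilution series.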

pIC50: −log10 of the molar value.

Broadly, the melting point is the temperature of the solid-liquid transition. For orientation: pIC50 means the IC50 on a negative log10 scale, so that one unit is a factor of ten.

In turn, `COc1cc2nccc(Oc3ccc(NS(=O)(=O)c4ccc(Oc5ccccc5)cc4)c(F)c3)c2cc1OC` [Example A57, N-[4-(6,7-Dimethoxy-quinolin-4-yloxy)-2-fluoro-phenyl]-4-phenoxy-benzenesulfonamide] gave a melting point of 202 to 204 °C. Further, the pIC50 in data set [1] was below 5.52.

In turn, `COc1cc2nccc(Oc3ccc(NS(=O)(=O)c4cc(Cl)cc(Cl)c4OC)cc3F)c2cc1OC` [Example A106, 3,5-Dichloro-N-[4-(6,7-dimethoxy-quinolin-4-yloxy)-3-fluoro-phenyl]-2-methoxy-benzenesulfonamide] yielded a melting point of 155 to 158 °C. Further, in data set [1], the pIC50 is 6.12.

Take `Cc1cc(Oc2ccc(NS(=O)(=O)c3ccc(Br)cc3C(F)(F)F)cc2)c2cc(F)ccc2n1` [Example B15, 4-Bromo-N-[4-(6-fluoro-2-methyl-quinolin-4-yloxy)-phenyl]-2-trifluoromethyl-benzenesulfonamide]: the melting point was in the range of 191 to 193 °C. The pIC50 in data set [1] was below 5.00.

In the case of `CCCS(=O)(=O)Nc1ccc(Oc2ccnc3cc(OCCCN4CCC(C)CC4)c(OC)cc23)c(F)c1` [Example D22, Propane-1-sulfonic acid (3-fluoro-4-{6-methoxy-7-[3-(4-methyl-piperidin-1-yl)-propoxy]-quinolin-4-yloxy}-phenyl)-amide], the melting point was in the range of 160 to 162 °C. Besides, in data set [1], the pIC50 is 6.32.

For the molecule `COc1cc2nccc(Oc3ccc(NS(=O)(=O)c4ccc(Br)cc4OC(F)(F)F)c(F)c3)c2cc1OC` [Example A147, 4-Bromo-N-[4-(6,7-dimethoxy-quinolin-4-yloxy)-2-fluoro-phenyl]-2-trifluoromethoxy-benzenesulfonamide], the melting point is 227 to 229 °C. In data set [1], the pIC50 was below 5.52.

The molecule `COc1cc2nccc(Oc3ccc(NS(=O)(=O)c4cccc5ccccc45)cc3F)c2cc1OC` [Example A100, Naphthalene-1-sulfonic acid [4-(6,7-dimethoxy-quinolin-4-yloxy)-3-fluoro-phenyl]-amide] registered a melting point of 118 to 120 °C. Also, in data set [1], the pIC50 was 6.13.

The molecule `Cc1cc(Oc2ccc(NS(=O)(=O)c3cccc(-c4ccccc4)c3)c(F)c2)c2cccc(C(F)(F)F)c2n1` [Example C02, Biphenyl-3-sulfonic acid [2-fluoro-4-(2-methyl-8-trifluoromethyl-quinolin-4-yloxy)-phenyl]-amide] showed a melting point of 187 to 188 °C. Also, in data set [1], the pIC50 was below 5.00.

The molecule `COc1cc2c(Oc3ccc(NS(=O)(=O)c4cccc(-c5ccccc5)c4)c(C)c3)ccnc2cc1OCCN1CCOCC1` [Example D07, Biphenyl-3-sulfonic acid {4-[6-methoxy-7-(2-morpholin-4-yl-ethoxy)-quinolin-4-yloxy]-2-methyl-phenyl}-amide] registered a melting point of 105 to 107 °C. Moreover, the pIC50 in data set [1] is 6.46.

`COc1cc2nccc(Oc3ccc(NS(=O)(=O)c4cc(Cl)c(O)c(Cl)c4)cc3)c2cc1OC` [Example A155, 3,5-Dichloro-N-[4-(6,7-dimethoxy-quinolin-4-yloxy)-phenyl]-4-hydroxy-benzenesulfonamide] came in with a melting point above 260 °C. The pIC50 in data set [1] was below 5.52.

Molecule `COc1cc2nccc(Oc3ccc(NS(=O)(=O)c4ccc(-c5ccccc5)cc4)cc3)c2cc1OC` [Example A81, Biphenyl-4-sulfonic acid [4-(6,7-dimethoxy-quinolin-4-yloxy)-phenyl]-amide] showed a melting point of 191 to 194 °C. For the same molecule, in data set [1], the pIC50 was below 5.00.

In turn, `COc1cc2c(Oc3ccc(NS(=O)(=O)c4ccccc4OC(F)(F)F)cc3F)ccnc2cc1OCCN1CCOCC1` [Example D06, N-{3-Fluoro-4-[6-methoxy-7-(2-morpholin-4-yl-ethoxy)-quinolin-4-yloxy]-phenyl}-2-trifluoromethoxy-benzenesulfonamide] gave a melting point of 185 to 187 °C. In addition, in data set [1], the pIC50 is 7.16.

On to `COc1cc(C)c(C)cc1S(=O)(=O)Nc1ccc(Oc2cc(C)nc3c(C(F)(F)F)cccc23)c(F)c1` [Example C10, N-[3-Fluoro-4-(2-methyl-8-trifluoromethyl-quinolin-4-yloxy)-phenyl]-2-methoxy-4,5-dimethyl-benzenesulfonamide], for which the melting point is 230 to 232 °C. Further, the pIC50 in data set [1] is below 5.00.

Regarding `COc1cc2c(Oc3ccc(NS(=O)(=O)c4ccccc4C#N)cc3F)ccnc2cc1OCCN1CCOCC1` [Example D27, 2-Cyano-N-{3-fluoro-4-[6-methoxy-7-(2-morpholin-4-yl-ethoxy)-quinolin-4-yloxy]-phenyl}-benzenesulfonamide], the melting point lay in the range of 193 to 196 °C. Besides, the pIC50 in data set [1] is 6.11.

In the case of `COc1cc2nccc(Oc3ccc(NS(=O)(=O)c4ccc(Br)c(F)c4)c(F)c3)c2cc1OC` [Example A11, 4-Bromo-N-[4-(6,7-dimethoxy-quinolin-4-yloxy)-2-fluoro-phenyl]-3-fluoro-benzenesulfonamide], the melting point lay in the range of 209 to 211 °C. For the same molecule, the pIC50 in data set [1] was 5.65.

For the molecule `COc1cc2c(Oc3ccc(NS(=O)(=O)c4ccc(Cl)cc4F)cc3F)ccnc2cc1OCCCN1CCCC(C)C1` (stereo not shown) [Example D24, 4-Chloro-2-fluoro-N-(3-fluoro-4-{6-methoxy-7-[3-(3-methyl-piperidin-1-yl)-propoxy]-quinolin-4-yloxy}-phenyl)-benzenesulfonamide], the melting point lay within 136 to 138 °C. The pIC50 in data set [1] is 6.74.

`COc1cc2nccc(Oc3ccc(NS(=O)(=O)c4ccc(C)s4)c(F)c3)c2cc1OC` [Example A21, 5-Methyl-thiophene-2-sulfonic acid [4-(6,7-dimethoxy-quinolin-4-yloxy)-2-fluoro-phenyl]-amide]: the melting point fell in the range of 218 to 220 °C. Further, in data set [1], the pIC50 was 5.33.

For `COc1cc2nccc(Oc3ccc(NS(=O)(=O)c4ccccc4OC(F)(F)F)cc3C)c2cc1OC` [Example A129, N-[4-(6,7-Dimethoxy-quinolin-4-yloxy)-3-methyl-phenyl]-2-trifluoromethoxy-benzenesulfonamide], the melting point lay in the range of 207 to 209 °C. In addition, in data set [1], the pIC50 was below 5.52.

Molecule `COC(=O)c1sccc1S(=O)(=O)Nc1ccc(Oc2cc(C)nc3ccc(F)cc23)cc1` [Example B17, 3-[4-(6-Fluoro-2-methyl-quinolin-4-yloxy)-phenylsulfamoyl]-thiophene-2-carboxylic acid methyl ester] gave a melting point of 160 to 161 °C. Besides, the pIC50 in data set [1] was below 5.00.

Consider `COc1cc2nccc(Oc3ccc(NS(=O)(=O)c4ccc(Br)c(Cl)c4)cc3F)c2cc1OC` [Example A124, 4-Bromo-3-chloro-N-[4-(6,7-dimethoxy-quinolin-4-yloxy)-3-fluoro-phenyl]-benzenesulfonamide], for which the melting point lay within 144 to 147 °C. Besides, in data set [1], the pIC50 is below 5.52.

In turn, `COc1cc2nccc(Oc3ccc(NS(=O)(=O)c4ccc5c(c4)CC(=O)N5C)c(C)c3)c2cc1OC` [Example A95, 1-Methyl-2-oxo-2,3-dihydro-1H-indole-5-sulfonic acid [4-(6,7-dimethoxy-quinolin-4-yloxy)-2-methyl-phenyl]-amide] showed a melting point of 115 to 116 °C. For the same molecule, the pIC50 in data set [1] is below 5.00.
